Measured values taken from article PMC4152863 (Regulatory peptides, 2013).
Several values for one entry are separate records, joined by “and”; a condition that tells them apart may be missing. Identical values can stand only once. Entries after “also recorded” stand apart in the source; their conditions may differ. Like-named read-outs stand apart in the source and are kept apart here.

Legend:
[1] = target: T1, novel, non-AT1, non-AT2 angiotensin binding site (neurolysin) (Rattus norvegicus, UniProt P42676); conditions: cited from earlier work
T1 sequence (P42676 38-704): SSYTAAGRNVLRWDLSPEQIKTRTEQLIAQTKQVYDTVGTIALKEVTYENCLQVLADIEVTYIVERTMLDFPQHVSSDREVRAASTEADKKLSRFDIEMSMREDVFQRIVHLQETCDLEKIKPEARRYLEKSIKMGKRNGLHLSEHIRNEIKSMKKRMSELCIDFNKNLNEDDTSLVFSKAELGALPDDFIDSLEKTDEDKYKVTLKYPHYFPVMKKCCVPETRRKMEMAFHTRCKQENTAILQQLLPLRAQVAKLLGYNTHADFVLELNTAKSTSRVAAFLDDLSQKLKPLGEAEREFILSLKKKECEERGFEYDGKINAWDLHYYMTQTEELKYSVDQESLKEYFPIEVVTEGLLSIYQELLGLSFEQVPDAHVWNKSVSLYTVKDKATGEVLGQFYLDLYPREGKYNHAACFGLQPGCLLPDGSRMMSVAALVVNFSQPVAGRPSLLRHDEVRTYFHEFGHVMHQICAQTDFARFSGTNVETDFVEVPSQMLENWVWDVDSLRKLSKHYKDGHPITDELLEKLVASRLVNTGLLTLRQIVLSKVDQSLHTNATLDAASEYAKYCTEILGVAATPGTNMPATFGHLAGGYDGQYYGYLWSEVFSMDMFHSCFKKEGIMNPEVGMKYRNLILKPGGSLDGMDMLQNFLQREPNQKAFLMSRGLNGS

[2] = target: T1, novel, non-AT1, non-AT2 angiotensin binding site (neurolysin); experiment: Unmasking of specific 125I-SI Ang II binding in membranes
[3] = target: T1, novel, non-AT1, non-AT2 angiotensin binding site (neurolysin); experiment: Inhibition or enhancement of PCMB-unmasked 125I-SI Ang II binding in membranes
[4] = system: neurolysin; conditions: cited from earlier work
[5] = system: Sprague-Dawley rats; experiment: Drinking test after icv Ang II with or without HgCl2; type: in vivo, rat; conditions: ICV 200 pmoles HgCl2 with 100 pmoles Ang II; water intake over 30 min
[6] = target: liver AT1 receptors (Rattus norvegicus, UniProt P25095); type: binding; conditions: for Kd of 125I-SI Ang II binding: liver
Chain of liver AT1 receptors (P25095 whole entry): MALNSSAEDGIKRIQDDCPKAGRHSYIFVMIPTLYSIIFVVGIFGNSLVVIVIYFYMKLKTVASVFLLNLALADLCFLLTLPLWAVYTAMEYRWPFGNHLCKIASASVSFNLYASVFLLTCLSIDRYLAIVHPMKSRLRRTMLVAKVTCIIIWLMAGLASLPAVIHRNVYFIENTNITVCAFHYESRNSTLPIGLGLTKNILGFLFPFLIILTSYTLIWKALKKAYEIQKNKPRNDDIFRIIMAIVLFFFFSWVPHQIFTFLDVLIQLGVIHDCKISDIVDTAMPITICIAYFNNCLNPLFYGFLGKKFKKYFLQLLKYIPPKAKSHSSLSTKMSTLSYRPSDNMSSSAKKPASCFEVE

[7] = system: thimet oligopeptidase; conditions: cited from earlier work
[8] = brain and testis, ~100 μM primary screening or range of concentrations
[9] = 100 μM test compound, 100 μM PCMB, brain and testis

## OCCS [2-mercaptoethanol, 2-mercaptoethanol]
[1]
  reversal of PCMB unmasking of Ang II binding (in words): reversed

## O=C(O)c1ccc(O)cc1 [4-hydroxybenzoic acid]
[2]; [8]
  unmasking of specific 125I-SI Ang II binding in the absence of PCMB (in words): did not promote

## O=C(O)c1cc[c]([Hg][OH])cc1 [4-hydroxymercuribenzoate, 4-hydroxymercuribenzoic acid]
[2]
  unmasking of specific 125I-SI Ang II binding in the absence of PCMB (in words): unmasked non-AT1, non-AT2 binding independent of PCMB; also recorded: partial unmasking; also recorded: capable of fully unmasking
[2]; brain and testis
  concentration for optimal (peak) unmasking of 125I-SI Ang II binding: ~ 300 μM
[2]; brain and testis, listed as 4-OH Hg bza
  concentration for optimal (peak) unmasking of 125I-SI Ang II binding: 300 µM
[3]
  inhibition of PCMB-unmasked 125I-SI Ang II binding, primary screening (in words): moderately inhibited

## O=[N+]([O-])[O-].[Ag+] [AgNO3, silver nitrate]
[3]
  inhibition of PCMB-unmasked 125I-SI Ang II binding, primary screening (in words): significantly reduced; also recorded: substantially inhibited
[3]; brain and testis, 100 μM PCMB
  IC50's for inhibition of 125I-SI Ang II binding: 1 to 20 µM
[3]; brain, 100 μM PCMB
  IC50 for inhibition of 125I-SI Ang II binding: 1.77 µM
[3]; testis, 100 μM PCMB
  IC50 for inhibition of 125I-SI Ang II binding: 21.3 µM

## O[C@@H](CS)[C@@H](O)CS [DTT]
[1]
  reversal of PCMB unmasking of Ang II binding (in words): reversed
[4]
  inhibition of the enzymatic activity of neurolysin (in words): can be inhibited

## Cc1cc(-c2ccc(/N=N/c3ccc4c(S(=O)(=O)O)cc(S(=O)(=O)O)c(N)c4c3O)c(C)c2)ccc1/N=N/c1ccc2c(S(=O)(=O)O)cc(S(=O)(=O)O)c(N)c2c1O [Evans blue]
[2]; [8]
  unmasking of specific 125I-SI Ang II binding in the absence of PCMB (in words): unable to unmask
[3]; 100 μM, brain and testis
  effect on 125I-SI Ang II binding in the presence of PCMB (in words): enhanced
[3]; brain, 100 μM PCMB
  Rmax for enhancement of specific 125I-SI Ang II binding in the presence of PCMB: 163±56%
[3]; testis, 100 μM PCMB
  Rmax for enhancement of specific 125I-SI Ang II binding in the presence of PCMB: 442±340%

## [Cl][Hg][Cl] [HgCl2, mercuric chloride]
[5]
  effect on dipsogenic response to Ang II (in words): lack of effect; also recorded: did not affect
[6]
  Bmax of 125I-SI Ang II binding: 20.8±1.8 and 20.6±2.4 and 20.4±4.4
  effect on 125I-SI Ang II binding to AT1 receptors (in words): lack of effect; also recorded: did not impair
[6]; 10 μM HgCl2
  Kd of 125I-SI Ang II binding: 2.93±0.40
[6]; 30 μM HgCl2
  Kd of 125I-SI Ang II binding: 2.41±0.46
[6]; 100 μM HgCl2
  Kd of 125I-SI Ang II binding: 3.15±1.1
[3]
  inhibition of PCMB-unmasked 125I-SI Ang II binding, primary screening (in words): significantly reduced; also recorded: substantially inhibited
[3]; brain and testis, 100 μM PCMB
  IC50's for inhibition of 125I-SI Ang II binding: 1 to 20 µM
[3]; brain, 100 μM PCMB
  IC50 for inhibition of 125I-SI Ang II binding: 14.3 µM
[3]; testis, 100 μM PCMB
  IC50 for inhibition of 125I-SI Ang II binding: 11.0 µM

## O=C(O)c1cc[c]([Hg][Cl])cc1 [PCMB, parachloromercuribenzoic acid]
[2]; brain and testis
  concentration for optimal (peak) unmasking of 125I-SI Ang II binding: 100 to 300 µM
[7]
  unmasking of Ang II binding to thimet oligopeptidase (in words): does not unmask

## O=[N+]([O-])[O-].[Na+] [Sodium nitrate]
[3]
  inhibition of PCMB-unmasked 125I-SI Ang II binding, primary screening (in words): did not show any inhibition

## NCCCNCCS [WR-1065]
[3]; [9]
  inhibition of PCMB-unmasked 125I-SI Ang II binding, primary screening (in words): did not inhibit

## NCCCNCCSP(=O)(O)O [amifostine]
[3]; [9]
  inhibition of PCMB unmasking of 125I-SI Ang II binding, primary screening: more than 50%
[3]; at or above 100 μM, 100 μM PCMB, data not shown
  inhibition in secondary screening: < 50%

## NCCS [cysteamine]
[3]; [9]
  inhibition of PCMB unmasking of 125I-SI Ang II binding, primary screening: more than 50%
[3]; brain, 100 μM PCMB
  IC50 for inhibition of 125I-SI Ang II binding: 28.1 µM
[3]; testis, 100 μM PCMB
  IC50 for inhibition of 125I-SI Ang II binding: 138 µM

## OO [hydrogen peroxide]
[3]
  inhibition of PCMB-unmasked 125I-SI Ang II binding, primary screening (in words): did not inhibit

## [Cl][Mn][Cl] [manganese chloride]
[2]
  unmasking of specific 125I-SI Ang II binding in the absence of PCMB (in words): greater unmasking in testis compared to brain

## COC([CH2][Hg+])CNC(=O)c1ccccc1OCC(=O)O.[OH-] (stereo not shown) [mersalyl acid]
[2]; brain and testis, absence of PCMB, data not shown
  unmasking of 125I-SI Ang II binding at concentrations up to 1 mM (in words): no ability to unmask; also recorded: did not unmask
[3]
  inhibition of PCMB-unmasked 125I-SI Ang II binding, primary screening (in words): full inhibition
[3]; [9]
  inhibition of PCMB unmasking of 125I-SI Ang II binding, primary screening: more than 50%
[3]; brain and testis, 100 μM PCMB
  IC50's for inhibition of 125I-SI Ang II binding: 1 to 20 µM
[3]; brain, 100 μM PCMB
  IC50 for inhibition of 125I-SI Ang II binding: 1.10 µM
[3]; testis, 100 μM PCMB
  IC50 for inhibition of 125I-SI Ang II binding: 2.27 µM
